The text below walks through data of US6245336A, “Prevention and treatment of acetaminophen toxicity with grape seed proanthocyanidin extract” (Dry Creek Nutrition, Inc., priority 1999, dated 2001).

The test system of series [1] is serum alanine aminotransferase activity. As to the kind of experiment: serum alanine aminotransferase (ALT) activity in acetaminophen-treated mice. The note with it: no pre-exposure to GSPE, 24 h. It counts as in vivo. The protocol: (§1) Trials of the efficacy of GSPE in preventing acetaminophen toxicity were performed using mice as test subjects. The GSPE used in the subject trials is a standardized water-ethanol extract from red grape seeds, identified as IH636 by InterHealth Nutraceuticals, Inc., of Concord, Calif. The dosage used in the subject trials was 100 mg of GSPE per kg of body weight, daily for three or seven days. This dosage is equivalent to about […] of body weight, based on the following formula from the CRC Handbook of Toxicology, Delanko M. J. and Hollinger M. A. eds., CRC Press 1995, p. 654:
(§2) GSPE was dissolved in phosphate-buffered saline solution and the solution was administered orally. Acetaminophen then was administered intraperitoneally, as a single toxic dose, in dosage of either 400 or 500 mg/kg. These dosage levels are equivalent to approximately 10 grams for normal healthy adults and 4 to 6 grams for alcoholics, levels that have been found toxic for humans. Twenty-four hours after administration of the acetaminophen, blood samples were removed from the subjects and analyzed for serum alanine aminotransferase activity, a well-known biomarker of liver toxicity. Liver samples also were taken and analyzed them for apoptotic and necrotic cell death DNA damage and gene expression.

Another series has as its system mice. As to the kind of experiment: number of deaths of mice treated with acetaminophen and GSPE. It counts as in vivo. The following applies: without pre-exposure to GSPE. The protocol: as §1, §2
In the next series the test system is liver tissue. As to the kind of experiment: DNA fragmentation assay of liver tissue from acetaminophen-treated mice. The note with it: without pre-exposure to GSPE. It counts as in vivo. The method, then: as §1, §2
For another series, the system named is liver sections. As to the kind of experiment: liver sections at 400× magnification (histology). It counts as in vivo, mice. The following applies: acetaminophen 500 mg/kg without GSPE pre-treatment; FIG. 11. The protocol: as §1
FIGS. 9 through 12 show comparison liver sections from test subjects at 400× magnification. FIGS. 9 and 10 show normal liver sections from test subjects not given acetaminophen.

The next series concerns humans. The following applies: normal healthy adults; cited from earlier work.

Regarding `CC(=O)Nc1ccc(O)cc1` [acetaminophen, N-acetyl-p-amino phenol], the “serum ALT” value in series [1] (acetaminophen 400 mg/kg i.p.) is reported as “about 22,000 U/L”; in series [1] (acetaminophen 500 mg/kg i.p.), “about 30,000 U/L”. Moreover, the number of deaths in the series on mice (acetaminophen 400 mg/kg) was 2; in the series on mice (acetaminophen 500 mg/kg), 4. Moreover, the DNA fragmentation result was “about 3.5 times that of the control group” with liver tissue (acetaminophen 400 mg/kg) and “about 4.8 times that of the control group” in the series with liver tissue (acetaminophen 500 mg/kg). In addition, the “liver section appearance indicating toxicity” value in the series on liver sections is “whitening and browning of cells, indicating toxicity”. Further, the “dosage level found toxic for humans” value in the series on humans is “approximately 10 grams”.
